Reference: patent US6730503B1 (Roche Vitamins Inc., priority 1996, dated 2004)
Like-named read-outs stand apart in the source and are kept apart here.

B1: Gluconobacter oxydans DSM No. 4025 alcohol/aldehyde dehydrogenase Enzyme A, wild type, SEQ ID NO: 5 (Ketogulonicigenium vulgare WSH-001) (protein)
chain: QVTPVTDELLANPPAGEWISYGQNQENYRHSPLTQITTENVGQLQLVWARGMQPGKVQVTPLIHDGVMYLANPGDVIQAIDAKTGDLIWEHRRQLPNIATLNSFGEPTRGMALYGTNVYFVSWDNHLVALDTATGQVTFDVDRGQGEDMVSNSSGPIVANGVIVAGSTCQYSPFGCFVSGHDSATGEELWRNYFIPRAGEEGDETWGNDYEARWMTGAWGQITYDPVTNLVHYGSTAVGPASETQRGTPGGTLYGTNTRFAVRPDTGEIVWRHQTLPRDNWDQECTFEMMVTNVDVQPSTEMEGLQSINPNAATGERRVLTGVPCKTGTMWQFDAETGEFLWARDTNYQNMIESIDENGIVTVNEDAILKELDVEYDVCPTFLGGRDWPSAALNPDSGIYFIPLNNVCYDMMAVDQEFTSMDVYNTSNVTKLPPGKDMIGRIDAIDISTGRTLWSVERAAANYSPVLSTGGGVLFNGGTDRYFRALSQETGETLWQTRLATVASGQAISYEVDGMQYVAIAGGGVSYGSGLNSALAGERVDSTAIGNAVYVFALPQ

Legend:
Enzyme A = test: Effect of metals and inhibitors on enzyme activity, PMS-DCIP assay; assay type: biochemical, G. oxydans DSM No. 4025
Enzyme A′ = test: as above; assay type: biochemical, G. oxydans DSM No. 4025
Enzyme A″ = test: as above; assay type: biochemical, G. oxydans DSM No. 4025
Enzyme B = test: as above; assay type: biochemical, G. oxydans DSM No. 4025
[1] = target: T1, Gluconobacter oxydans DSM No. 4025 alcohol/aldehyde dehydrogenase Enzyme B, wild type, SEQ ID NO: 8 (Ketogulonicigenium vulgare, UniProt F9Y8N6); test: Kinetic properties of Enzyme B; assay type: biochemical
T1 construct: 579 aa precursor with 23 aa signal peptide
T1 sequence (F9Y8N6 24-579): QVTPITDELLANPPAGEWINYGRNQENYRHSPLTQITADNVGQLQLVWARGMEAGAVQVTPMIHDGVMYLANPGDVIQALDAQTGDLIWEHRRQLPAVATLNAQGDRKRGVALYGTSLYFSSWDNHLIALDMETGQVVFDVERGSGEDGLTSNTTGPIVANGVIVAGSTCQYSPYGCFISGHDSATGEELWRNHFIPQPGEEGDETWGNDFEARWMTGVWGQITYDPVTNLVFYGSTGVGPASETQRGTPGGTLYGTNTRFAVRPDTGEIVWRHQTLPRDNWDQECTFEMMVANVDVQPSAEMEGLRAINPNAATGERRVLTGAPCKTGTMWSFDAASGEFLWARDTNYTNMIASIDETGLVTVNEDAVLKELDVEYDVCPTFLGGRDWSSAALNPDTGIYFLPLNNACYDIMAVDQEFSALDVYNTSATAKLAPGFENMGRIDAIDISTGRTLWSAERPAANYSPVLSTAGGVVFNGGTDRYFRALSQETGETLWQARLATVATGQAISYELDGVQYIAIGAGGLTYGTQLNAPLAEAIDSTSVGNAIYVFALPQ
Source text: Tables 11 and 12 summarizes the kinetic properties of chimera enzymes, Enzyme sA2 and Enzyme sB in comparison with Enzyme A and Enzyme B, respectively.

[2] = test system: Gluconobacter oxydans DSM No. 4025 AADH chimera Enzyme sB (Enzyme A residues 1-95, Enzyme B residues 96-180, Enzyme A residues 180-556; parents SEQ ID NO: …); test: Kinetic properties of chimera Enzyme sB; assay type: biochemical; conditions: read-out: Km (sorbitol)
Source text: (§1) To further improve the chimeras, Enzyme A/B21, Enzyme A/B22, Enzyme A/B25 and Enzyme A/B31 in the view point of the preferable codon usage, the C-terminal two thirds consisting of Enzyme B residues were replaced with the C-terminal two thirds consisting of Enzyme A residues. Enzyme A/B21, Enzyme A/B22, Enzyme A/B25 and Enzyme A/B31 genes were used for constructing new chimera genes of Enzyme sA21 (Enzyme A ammo acid residue Nos. 1-128, Enzyme B amino acid residue Nos. 129-180 and Enzyme A amino acid residue Nos. 180-556), Enzyme sA22 (Enzyme A amino acid residue Nos. 1-125, Enzyme B amino acid residue Nos. 126-180 and Enzyme A amino acid residue Nos. 180-556), Enzyme sA2 (Enzyme A amino acid residue Nos. 1-135, Enzyme B amino acid residue Nos. 136-180 and Enzyme A amino acid residue Nos. 180-556) and Enzyme sB (Enzyme A amino acid residue Nos. 1-95, Enzyme B amino acid residue Nos. 96-180 and Enzyme A amino acid residue Nos. 180-556) (FIG. 4). […]

[3] = test system: Gluconobacter oxydans DSM No. 4025 AADH chimera Enzyme sA2 (Enzyme A residues 1-135, Enzyme B residues 136-180, Enzyme A residues 180-556; parents SEQ ID NO: …); test: Kinetic properties of chimera Enzyme sA2; assay type: biochemical; conditions: read-out: Km (glucose)
Source text: as §1

[4] = target: T2, Gluconobacter oxydans DSM No. 4025 alcohol/aldehyde dehydrogenase Enzyme A′, SEQ ID NO: 6 (Ketogulonicigenium vulgare, UniProt F9Y5Q6); test: Effect of inhibitors on activity of Enzyme A′ (PMS-DCIP assay, substrate n-propanol); assay type: biochemical; conditions: 10 mM inhibitor, 30 minutes at 25° C., pH 7.5, relative to blank incubation
T2 construct: 579 aa precursor with 23 aa signal peptide; PMS-DCIP assay with n-propanol
T2 sequence (F9Y5Q6 with tags, fused parts or gaps): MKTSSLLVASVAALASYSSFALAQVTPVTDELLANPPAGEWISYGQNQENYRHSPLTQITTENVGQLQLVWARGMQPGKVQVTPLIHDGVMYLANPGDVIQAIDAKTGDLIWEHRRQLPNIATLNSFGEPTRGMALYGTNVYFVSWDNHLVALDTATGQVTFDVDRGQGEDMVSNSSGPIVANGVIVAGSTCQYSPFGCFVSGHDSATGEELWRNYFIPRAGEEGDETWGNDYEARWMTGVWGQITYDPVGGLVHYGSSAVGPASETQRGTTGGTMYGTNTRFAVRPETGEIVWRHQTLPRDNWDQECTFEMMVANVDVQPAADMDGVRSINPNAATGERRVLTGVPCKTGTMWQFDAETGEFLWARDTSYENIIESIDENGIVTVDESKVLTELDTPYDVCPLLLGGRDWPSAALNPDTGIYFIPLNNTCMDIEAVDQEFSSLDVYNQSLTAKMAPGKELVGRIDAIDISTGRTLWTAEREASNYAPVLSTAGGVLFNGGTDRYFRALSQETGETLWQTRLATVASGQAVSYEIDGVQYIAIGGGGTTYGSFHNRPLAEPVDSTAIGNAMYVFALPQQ
Method: (§2) The enzymatic activity of the AADHs herein can be determined by methods known in the art, such as by photometric analysis using a spectrophotometer. In accordance with the present invention, one unit of enzyme activity was defined as the amount of enzyme which catalyzed the reduction of 1 μmole of DCIP per minute. The extinction coefficient of DCIP at pH 8.0 was taken as 15 mM^−1. […] A second cuvette, i.e., a reference cuvette, contains all the above components except the substrate. The reference cuvette is used to standardize the background absorbance resulting from a substrate-independent (endogenous) reaction.
(§3) Enzyme activities of each clone (cell free extract, soluble fraction and membrane fraction) were measured by photometric analysis. The cells of each clone were inoculated in 5 ml of MB medium in a test tube and cultivated at 30° C. for 24 hours. The resulting broth was transferred into 200 ml of fresh MB medium in 500 ml flask and the flask was shaken on the rotary flask shaker at 30° C. for 24 hours. […] Substrate-dependent decreasing rate of absorbance of DCIP at 600 nm was measured at 25° C. by using a Kontron spectrophotometer UVIKON 810.
(§4) The enzyme (about 0.05 mg/ml) in 25 mM HEPES buffer, pH 7.5, containing 5% sucrose was incubated with metal or inhibitor for 30 minutes at 25° C. […] Remaining activity is expressed as relative activity against blank incubation.

[5] = target: T3, Gluconobacter oxydans DSM No. 4025 alcohol/aldehyde dehydrogenase Enzyme B, SEQ ID NO: 8 (Ketogulonicigenium vulgare, UniProt F9Y8N6); test: Effect of inhibitors on activity of Enzyme B (PMS-DCIP assay, substrate D-sorbitol); assay type: biochemical; conditions: 10 mM inhibitor, 30 minutes at 25° C., pH 7.5, relative to blank incubation
T3 construct: 579 aa precursor with 23 aa signal peptide; PMS-DCIP assay with D-sorbitol
T3 sequence (F9Y8N6 24-579): T1 sequence (F9Y8N6 24-579)
Method: as §2, §3, §4

[6] = substrate: OCC1(O)OC[C@H](O)[C@@H](O)[C@@H]1O; test: purified protein, by the assay type; conditions: other: Enzyme A
[7] = 5 mM compound, 30 minutes at 25° C., substrate L-Sorbose, relative to blank incubation
[8] = 5 mM compound, 30 minutes at 25° C., substrate n-Propanol, relative to blank incubation
[9] = 5 mM compound, 30 minutes at 25° C., substrate D-Sorbitol, relative to blank incubation
[10] = 0.5 mM compound, 30 minutes at 25° C., substrate L-Sorbose, relative to blank incubation
[11] = 1 mM compound, 30 minutes at 25° C., substrate L-Sorbose, relative to blank incubation
[12] = 1 mM compound, 30 minutes at 25° C., substrate n-Propanol, relative to blank incubation
[13] = 1 mM compound, 30 minutes at 25° C., substrate D-Sorbitol, relative to blank incubation

| Molecule | Relative remaining activity (Enzyme A; [7]) | Relative remaining activity (Enzyme A′; [8]) | Relative remaining activity (Enzyme A″; [7]) | Relative remaining activity (Enzyme B; [9]) | other results |
| --- | --- | --- | --- | --- | --- |
| [Cl-].[Cl-].[Zn+2] [ZnCl2] | 1.5 | 6.1 | 19.2 | 0.0 | – |
| Cl.NO [Hydroxylamine-HCl] | – | – | – | – | Relative remaining activity (Enzyme A; [10]): 104.6; Relative remaining activity (Enzyme A′; 0.5 mM compound, 30 minutes at 25° C., substrate n-Propanol, relative to blank incubation): 98.8; Relative remaining activity (Enzyme A″; [10]): 97.2; Relative remaining activity (Enzyme B; 0.5 mM compound, 30 minutes at 25° C., substrate D-Sorbitol, relative to blank incubation): 102.1 |
| O=C(O)CI [ICH2COONa] | – | – | – | – | Relative remaining activity (Enzyme A; [11]): 97.2; Relative remaining activity (Enzyme A′; [12]): 78.3; Relative remaining activity (Enzyme A″; [11]): 95.3; Relative remaining activity (Enzyme B; [13]): 100.2 |
| OCC1(O)OC[C@H](O)[C@@H](O)[C@@H]1O (stereo partly drawn) [sorbose, L-sorbose] | – | – | – | – | Ki [1]: 100 mM |
| [Cl][Mn][Cl] [MmCl2] | 0.0 | 45.7 | 0.0 | 0.0 | – |
| [Cl-].[Cl-].[Mg+2] [MgCl2] | 96.3 | 85.3 | 78.8 | 100.0 | – |
| OC[C@@H](O)[C@@H](O)[C@H](O)[C@@H](O)CO [sorbitol, D-sorbitol] | – | – | – | – | Km [2]: 61 mM |
| [Cl][Fe]([Cl])[Cl] [FeCl3] | 7.8 | 0.0 | 44.7 | 0.0 | – |
| [Ca+2].[Cl-].[Cl-] [CaCl2] | 98.8 | 95.3 | 123.0 | 102.9 | – |
| [F-].[Na+] [NaF] | – | – | – | – | Relative remaining activity (Enzyme A; [11]): 98.2; Relative remaining activity (Enzyme A′; [12]): 97.1; Relative remaining activity (Enzyme A″; [11]): 94.9; Relative remaining activity (Enzyme B; [13]): 100.8 |
| O=S(=O)([O-])[O-].[Ni+2] [NiSO4] | 42.7 | 59.7 | 90.3 | 79.4 | – |
| OC[C@H]1OC(O)[C@H](O)[C@@H](O)[C@@H]1O (stereo partly drawn) [glucose] | – | – | – | – | Km [3]: 20 mM |
| [Cl][Fe][Cl] [FeCl2] | 16.6 | 0.0 | 0.0 | 5.9 | – |
| [Cl-].[Cl-].[Co+2] [CoCl2] | – | – | – | – | Relative remaining activity (Enzyme A): 16.6; Relative remaining activity (Enzyme A′): 7.9; Relative remaining activity (Enzyme A″): 46.9; Relative remaining activity (Enzyme B): 23.6 |
| O=C(O)CN(CCOCCOCCN(CC(=O)O)CC(=O)O)CC(=O)O [EGTA] | – | – | – | – | remaining activity at 10000 µM [4]: 16.7%; remaining activity at 10000 µM [5]: 74% |
| [Cl][Cu][Cl] [CuCL2] | 0.0 | 0.0 | 0.0 | 0.0 | – |
| B1 | – | – | – | – | Km [6]: 36 mM mM |
